{"source": "patent US20110015267A1", "about": "(priority 2009, published 2011)", "key": {"[1]": {"experiment": "Method B: incremental addition of magnesium valproate salt to L-carnitine inner salt solution"}, "[2]": {"conditions": "cited from earlier work"}, "[3]": {"experiment": "Conventional valproates combined with L-carnitine inner salt in water", "assay_type": "physicochemical", "conditions": "for Result When Combined With L-Carnitine Inner Salt in Water: dissolution / stability behaviour of the valproate in water", "description": "The inventor investigated methods for the preparation of long-needed, palatable liquid compositions having quantitatively precise defined proportions of valproate and L-carnitine in water. […] Instead, oily droplets of valproic acid adhered to the formulation vessel, making it impossible to formulate compositions having quantitatively precise defined proportions of valproate. […] This lack of purity renders it impossible to weigh calculated quantities of the magnesium valproate of '850 that are required for a quantitatively precise defined formulation and formulate a composition having the corresponding quantitatively precise defined proportions of valproate and L-carnitine; the weighed quantities of the magnesium valproate of '850 will contain variable proportions of impurities that are water-soluble, partially water-soluble, and water-insoluble as well as the magnesium valproate, and the resulting formulation will contain less than quantitatively precise proportions of valproate. […] Potassium valproate, cesium valproate, and rubidium valproate were not tested, because high concentrations of potassium, cesium, and rubidium are toxic."}, "[4]": {"conditions": "cited from earlier work", "remark": "listed apart in the source"}, "[5]": {"experiment": "Sterilization of liquid dosage form by heating or filtration", "assay_type": "physicochemical", "description": "Therefore, aqueous solutions of the invention must be prepared to be free of microbial contaminants. Most preferably, water that has been purified to meet US Pharmacopeial standards is used in preparing aqueous solutions of the invention. [U.S. Pharmacopeia, Volume 32. U.S. Pharmacopeial Convention, Rockville, Md. USP Monograph entitled “Purified Water” and chapter entitled “Water for Pharmaceutical Purposes”<1231>.] Water can be purified in known ways to be free of trace contaminants and microbes that cause undesirable side reactions when administered therapeutically to a subject. However, L-carnitine decomposes when subjected to heating. Therefore, the inventor has used aseptic processing and sterilization by filtration through a filter having a pore-size sufficiently small to allow passage of the composition of the invention through the pores but prevent passage of microbes to prepare compositions for pharmaceutical use.\nA palatable liquid dosage form of the invention is divided into portions. Each portion is subjected to sterilization by (a) heating or (b) filtration through a filter membrane having a […] pore size."}, "[6]": {"experiment": "Solubility limit of magnesium valproate salts in purified water USP (incremental addition)", "method": "The experiment was repeated but valproate was added as L-carnitine magnesium valproate. Incremental portions of L-carnitine magnesium valproate were added to purified water until the solubility limit was reached, as indicated by the presence of white solid in the colorless aqueous supernatant. […] The solution was divided into portions, and known masses of L-carnitine inner salt, accurately weighed, were added to provide solutions having the compositions shown in Table 2. Each solution was tested by two analysts."}, "[7]": {"conditions": "reported; not tested by the inventor; cited from earlier work"}, "[8]": {"conditions": "with about 1,000 mg/mL L-carnitine"}}, "note": "Entries after “also recorded” stand apart in the source; their conditions may differ. Counter-ions that a name gives are not always drawn.", "data": [{"molecule": "Magnesium valproate hydrate", "values": [{"measurement": "pH of solution", "setting": "[1]; [8]", "result": "near neutral"}]}, {"molecule": "CCCC(CCC)C(=O)O", "note": "[valproate]", "values": [{"measurement": "absorption from the gastrointestinal tract", "setting": "[2]; all conventional dosage forms", "result": "rapidly and nearly completely absorbed"}, {"measurement": "time of peak plasma concentrations after ingestion", "setting": "[2]; all conventional dosage forms", "result": "1 to 4", "unit": "h"}, {"measurement": "excreted in the urine as an L-carnitine ester", "setting": "[2]; humans and other mammals", "result": 3, "unit": "%"}, {"measurement": "metabolized by β- and ω-oxidations in mitochondria and the cytosol", "setting": "[2]; humans and other mammals", "result": 17, "unit": "%"}, {"measurement": "metabolized in the liver by direct glucuronidation", "setting": "[2]; humans and other mammals", "result": 80, "unit": "%"}]}, {"molecule": "CCCC(CCC)C(=O)O", "note": "[Valproic acid, 2-propylpentanoic acid]", "values": [{"measurement": "Result When Combined With L-Carnitine Inner Salt in Water", "setting": "[3]; listed as valproic acid", "result": "poorly soluble in water"}, {"measurement": "solubility in water", "setting": "[4]", "result": "very slightly soluble in water"}]}, {"molecule": "Magnesium valproate", "values": [{"measurement": "Result When Combined With L-Carnitine Inner Salt in Water", "setting": "[3]", "result": "did not dissolve completely in water; also recorded: failed to dissolve completely;"}]}, {"molecule": "CCCC(CCC)C(=O)[O-].[Na+]", "note": "[Sodium valproate]", "values": [{"measurement": "Result When Combined With L-Carnitine Inner Salt in Water: solution appearance", "setting": "[3]", "result": "weighing. Solution was clear &"}, {"measurement": "Result When Combined With L-Carnitine Inner Salt in Water", "setting": "[3]", "result": "rapidly adsorbed water from the atmosphere; also recorded: Sodium valproate is hygroscopic"}]}, {"molecule": "CCCC(CCC)C(=O)O", "note": "[Divalproex sodium]", "values": [{"measurement": "Result When Combined With L-Carnitine Inner Salt in Water", "setting": "[3]", "result": "decomposed on addition to water"}]}, {"molecule": "C[N+](C)(C)CC(O)CC(=O)[O-]", "note": "[L-carnitine, L-Carnitine inner salt]", "values": [{"measurement": "stability when subjected to heating", "setting": "[5]", "result": "decomposes"}]}, {"molecule": "CCCC(CCC)C(=O)[O-].CCCC(CCC)C(=O)[O-].C[N+](C)(C)C[C@H](O)CC(=O)[O-].[Mg+2]", "note": "[L-carnitine magnesium valproate, L-Carnitine magnesium valproate]", "values": [{"measurement": "solubility limit, valproate concentration of the solution", "setting": "[6]", "result": "about 150 mg/mL"}, {"measurement": "valproate concentration at the limit of solubility", "setting": "[1]; in aqueous L-carnitine inner salt, about 1,000 mg/mL L-carnitine", "result": "about 150 mg/mL"}, {"measurement": "appearance of solution at the limit of solubility", "setting": "[1]; [8]", "result": "clear and colorless"}, {"measurement": "odor of solution at the limit of solubility", "setting": "[1]; [8]", "result": "no odor"}, {"measurement": "pH of solution", "setting": "[1]; [8]", "result": "near neutral"}, {"measurement": "taste of solution at the limit of solubility", "setting": "[1]; [8]", "result": "no taste"}]}, {"molecule": "Calcium valproate", "values": [{"measurement": "carcinogenicity", "setting": "[7]", "result": "been reported to be carcinogenic."}]}]}
